The target of experiment [1] is T1, Transcription factor HES-1 (Mus musculus) (UniProt P35428).
T1 sequence (whole entry): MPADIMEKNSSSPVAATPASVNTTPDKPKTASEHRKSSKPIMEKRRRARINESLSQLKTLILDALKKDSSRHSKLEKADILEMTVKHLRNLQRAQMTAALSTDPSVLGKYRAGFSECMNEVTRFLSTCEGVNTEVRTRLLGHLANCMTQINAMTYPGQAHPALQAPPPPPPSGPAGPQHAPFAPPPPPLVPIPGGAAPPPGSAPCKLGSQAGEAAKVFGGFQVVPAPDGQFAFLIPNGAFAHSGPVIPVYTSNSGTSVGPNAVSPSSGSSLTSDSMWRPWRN
In words: Inhibition of Cy3-labeled mouse recombinant Hes1 (3-281) dimer formation expressed in Escherichia coli at 100 uM by microplate-based assay.

The target in experiment [2] is T2, Transcription factor HES-1 (Mus musculus, UniProt P35428).
T2 sequence (P35428 whole entry): T1 sequence (whole entry)
As to the kind of experiment: Inhibition of Cy3-labeled mouse recombinant Hes1 (3-281) dimer formation expressed in Escherichia coli by microplate-based assay.

For experiment [3], the target named is T1, Transcription factor HES-1 (Mus musculus). The settings on record: C3H 10T1/2, 50 uM.
Description: Inhibition of mouse Hes1-mediated suppression of basic helix-loop-helix activator genes in C3H10T1/2 cells at 50 uM by luciferase transactivation assay

Experimental findings from ChEMBL document CHEMBL1156024, “The first Hes1 dimer inhibitors from natural products” (Bioorg Med Chem Lett, 2009) are described below.

Usually inhibition stands for the change of the read-out against control, counted positive when it falls. What is called IC50 is the midpoint of a concentration-inhibition curve.

Activity calls are given as the source filed them. No cut-off for these calls is given here.

For `COC(=O)c1[nH]c(C(=O)OC)c(-c2c[nH]c3ccccc23)c1-c1c[nH]c2ccccc12`, the inhibition entry in experiment [1] is “inactive”.

For the compound `COc1cc([C@@H]2c3c(cc(OC)c(O)c3OC)C[C@H](CO)[C@H]2CO[C@@H]2OC[C@@H](O)[C@H](O)[C@H]2O)cc(OC)c1O` [NUDIPOSIDE], the IC50 in experiment [2] came to 9.6 µM.

With `C/C=C1/[C@H]2OC=C(C(=O)O)[C@H]1CC(=O)OC[C@H](c1ccc(O)c(O)c1)OC[C@H]1O[C@@H](O2)[C@H](O)[C@@H](O)[C@@H]1O`, the IC50 in experiment [2] is 7.8 µM.

On to `COc1cc([C@H]2c3c(cc(OC)c(O)c3OC)C[C@@H](CO)[C@@H]2CO[C@@H]2OC[C@@H](O)[C@H](O)[C@H]2O)cc(OC)c1O` [LYONISIDE], for which the IC50 in experiment [2] came out at 48.1 µM.

On to `COC(=O)c1[nH]c(C(=O)O)c(-c2c[nH]c3ccccc23)c1-c1c[nH]c2ccccc12`, for which the inhibition entry in experiment [1] was “inactive”.

On to `COC(=O)c1[nH]c(C(=O)OC)c(-c2c[nH]c3ccc(O)cc23)c1-c1c[nH]c2ccccc12` [LYCOGARUBIN B], for which the IC50 in experiment [2] turned out to be 16.5 µM.

Take `CCCC(=O)/C=C/C1=C(O)C(=O)c2cc(O)c(O)cc2C1=O` [LINDBLADIONE]: the IC50 in experiment [2] worked out at 4.1 µM. The same compound displayed an inhibition in experiment [3] of 60%.

Take `O=C1NCc2c1c1c3ccccc3[nH]c1c1[nH]c3ccccc3c21`: in experiment [1], the inhibition result is “inactive”.

In the case of `O=C(O)c1[nH]c(C(=O)O)c(-c2c[nH]c3ccccc23)c1-c1c[nH]c2ccccc12` [LYCOGALIC ACID A], the IC50 in experiment [2] is 6 µM. Further, the inhibition in experiment [3] is 60%.
